Data on 2 compounds can be found in paper PMC11054573, “Identification of Ureidocoumarin-Based Selective Discoidin Domain Receptor 1 (DDR1) Inhibitors via Drug Repurposing Approach, Biological Evaluation, and In Silico Studies” (Pharmaceuticals, 2024).

The test system of assay [1] is A549 non-small cell lung cancer cells. Kind of assay: NCI SRB antiproliferative assay, A549. The conditions noted are these: Homo sapiens, read-out: % Growth inhibition at 10 µM A549. It counts as cell-based. As to the method: (§1) Six members, 3a, 3g–j, and 3q, out of the investigated compounds were further evaluated for their antiproliferative effects against human cancer cell lines, including leukemia (K562), colon cancer (HCT116), non-small cell lung (NSCL) cancer (A549, NCI-H23 and NCI-H460), and breast cancer (MCF-7 and T47D) cells. The tested cell lines’ choice depended on their elevated DDR1 expression levels. The cell lines were all treated with a 10 µM concentration of the tested compounds, and the results were expressed as the percentage of growth inhibition (%GI) (Table 4).
(§2) Inhibition of the tumor relevant carbonic anhydrases IX and XII may be one of these additional mechanisms.
(§3) The evaluation of the antiproliferative activities of compounds 3a, 3g–j, and 3q over a panel of DDR1-dependent cell lines was conducted employing the sensitive Sulforhodamine B (SRB) assay at the National Cancer Institute (NCI), Bethesda, Maryland, USA, following the standard protocol.
Background: In SRB staining, fixed cells bind dye roughly in proportion to their protein.

Another assay concerns the target T1, TrkA kinase (Homo sapiens, UniProt P04629).
T1 construct: purchased Reaction Biology Corporation (RBC)
The experiment in a line: Biochemical kinase profile (23 oncogenic kinases), TrkA. The conditions noted are these: 10 μM compound, 10 μM ATP, single-dose duplicate. As to the method:
(§4) These tested kinases were selected based on common off targets for several DDR1/2 kinase inhibitors.
(§5) Reaction Biology Corporation (RBC) Kinase HotSpot^SM service was adopted for biochemical evaluation of the target compounds against DDR1 and DDR2 kinases along with the kinase profile of compound 3q according to the reported assay protocol.
(§6) Figure 5 Inhibition percentages exerted by compound 3q (10 µM) over a panel of 23 oncogenic kinases. Compound 3q was tested in a single-dose duplicate mode, and the reactions were carried out at 10 μM ATP.

The subject of a further assay is K562 leukemia cells. Kind of assay: NCI SRB antiproliferative assay, K562. It is filed as cell-based. The conditions noted are these: Homo sapiens, read-out: % Growth inhibition at 10 µM K562. As to the method: as §1, §2, §3
The test system of assay [2] is NCI-H23 non-small cell lung cancer cells. Kind of assay: NCI SRB antiproliferative assay, NCI-H23. It counts as cell-based. The conditions noted are these: Homo sapiens, read-out: % Growth inhibition at 10 µM NCI-H23. As to the method: as §1, §2, §3
Assay [3] has as its system MCF-7 breast cancer cells. The experiment in a line: NCI SRB antiproliferative assay, MCF-7. It counts as cell-based. The conditions noted are these: Homo sapiens, MCF7; read-out: % Growth inhibition at 10 µM MCF-7. As to the method:
as §1, §2, §3

Another assay concerns the target DDR1 (Homo sapiens, UniProt Q08345). Kind of assay: RBC radiometric HotSpot kinase assay, DDR1.
For assay [4], the system named is HCT116 colon cancer cells. The experiment in a line: NCI SRB antiproliferative assay, HCT116. It counts as cell-based. The conditions noted are these: Homo sapiens, HCT-116; read-out: % Growth inhibition at 10 µM HCT116. As to the method: as §1, §2, §3
Assay [5] has as its system T47D breast cancer cells. The experiment in a line: NCI SRB antiproliferative assay, T47D. It counts as cell-based. The conditions noted are these: Homo sapiens, read-out: % Growth inhibition at 10 µM T47D. The method, then:
as §1, §2, §3

The target in the next assay is T2, c-Kit kinase (Homo sapiens, UniProt P10721).
T2 construct: purchased Reaction Biology Corporation (RBC)
T2 sequence (P10721 26-976): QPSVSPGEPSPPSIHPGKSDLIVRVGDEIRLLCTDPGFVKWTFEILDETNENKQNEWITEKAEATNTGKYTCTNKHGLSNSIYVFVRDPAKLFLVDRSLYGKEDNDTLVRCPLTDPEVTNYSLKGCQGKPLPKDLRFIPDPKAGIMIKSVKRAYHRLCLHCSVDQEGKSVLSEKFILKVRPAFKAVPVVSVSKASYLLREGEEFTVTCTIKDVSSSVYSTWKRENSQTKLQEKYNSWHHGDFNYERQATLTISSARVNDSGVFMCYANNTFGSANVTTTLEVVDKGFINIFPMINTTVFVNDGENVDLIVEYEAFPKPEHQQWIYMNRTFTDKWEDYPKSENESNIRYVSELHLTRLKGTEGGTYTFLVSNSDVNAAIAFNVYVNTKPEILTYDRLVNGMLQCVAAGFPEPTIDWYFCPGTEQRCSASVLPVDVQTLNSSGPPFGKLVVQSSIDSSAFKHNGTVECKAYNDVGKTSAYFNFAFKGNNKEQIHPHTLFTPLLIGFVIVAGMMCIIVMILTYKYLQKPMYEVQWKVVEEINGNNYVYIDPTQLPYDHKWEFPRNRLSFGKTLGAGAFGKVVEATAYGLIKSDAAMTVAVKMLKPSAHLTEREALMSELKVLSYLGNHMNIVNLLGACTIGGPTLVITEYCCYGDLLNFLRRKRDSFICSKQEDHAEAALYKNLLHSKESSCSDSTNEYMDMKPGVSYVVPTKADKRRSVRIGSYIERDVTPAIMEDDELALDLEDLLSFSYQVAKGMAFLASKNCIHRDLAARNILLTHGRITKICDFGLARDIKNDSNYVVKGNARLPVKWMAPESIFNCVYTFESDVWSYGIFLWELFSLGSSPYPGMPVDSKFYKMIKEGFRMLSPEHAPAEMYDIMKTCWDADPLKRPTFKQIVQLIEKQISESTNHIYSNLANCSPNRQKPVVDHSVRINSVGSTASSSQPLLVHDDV
The experiment in a line: Biochemical kinase profile (23 oncogenic kinases), c-Kit. The conditions noted are these: 10 μM compound, 10 μM ATP, single-dose duplicate. The method, then: as §4, §5, §6

The target of a further assay is T3, DDR2 (Homo sapiens, UniProt Q16832).
T3 sequence (Q16832 22-855): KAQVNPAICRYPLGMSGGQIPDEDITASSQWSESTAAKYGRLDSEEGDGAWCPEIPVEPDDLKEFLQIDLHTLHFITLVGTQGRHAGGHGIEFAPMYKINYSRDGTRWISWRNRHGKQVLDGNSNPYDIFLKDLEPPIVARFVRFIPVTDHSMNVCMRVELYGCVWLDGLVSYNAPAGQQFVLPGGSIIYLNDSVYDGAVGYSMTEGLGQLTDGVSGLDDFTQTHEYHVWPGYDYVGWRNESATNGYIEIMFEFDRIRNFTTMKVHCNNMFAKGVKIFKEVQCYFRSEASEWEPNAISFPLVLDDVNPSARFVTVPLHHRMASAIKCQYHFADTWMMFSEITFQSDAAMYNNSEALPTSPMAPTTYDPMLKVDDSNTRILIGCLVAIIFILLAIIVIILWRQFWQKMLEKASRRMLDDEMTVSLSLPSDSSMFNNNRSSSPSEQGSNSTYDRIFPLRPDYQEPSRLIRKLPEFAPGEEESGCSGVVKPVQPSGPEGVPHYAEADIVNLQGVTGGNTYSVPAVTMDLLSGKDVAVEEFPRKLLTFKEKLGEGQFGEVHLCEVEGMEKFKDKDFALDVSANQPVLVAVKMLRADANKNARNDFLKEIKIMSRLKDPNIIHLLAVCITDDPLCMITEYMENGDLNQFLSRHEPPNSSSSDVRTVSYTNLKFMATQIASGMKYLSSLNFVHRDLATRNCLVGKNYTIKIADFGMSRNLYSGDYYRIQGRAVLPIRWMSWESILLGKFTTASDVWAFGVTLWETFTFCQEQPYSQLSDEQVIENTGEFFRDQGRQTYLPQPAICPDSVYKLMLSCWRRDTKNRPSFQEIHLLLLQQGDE
Kind of assay: RBC radiometric HotSpot kinase assay, DDR2.

For assay [6], the system named is DDR1-dependent cancer cell lines. The experiment in a line: NCI SRB antiproliferative assay, whole panel of DDR1-dependent cell lines. It counts as cell-based, human. The conditions noted are these: 10 µM, span over the seven cell lines. As to the method: as §1, §2, §3
The subject of assay [7] is NCI-H460 non-small cell lung cancer cells. Kind of assay: NCI SRB antiproliferative assay, NCI-H460. It counts as cell-based. The conditions noted are these: Homo sapiens, read-out: % Growth inhibition at 10 µM NCI-H460. As to the method: as §1, §2, §3
The target of the next assay is T4, ABL1 kinase (Homo sapiens, UniProt P00519).
T4 construct: purchased Reaction Biology Corporation (RBC)
T4 sequence (P00519 whole entry): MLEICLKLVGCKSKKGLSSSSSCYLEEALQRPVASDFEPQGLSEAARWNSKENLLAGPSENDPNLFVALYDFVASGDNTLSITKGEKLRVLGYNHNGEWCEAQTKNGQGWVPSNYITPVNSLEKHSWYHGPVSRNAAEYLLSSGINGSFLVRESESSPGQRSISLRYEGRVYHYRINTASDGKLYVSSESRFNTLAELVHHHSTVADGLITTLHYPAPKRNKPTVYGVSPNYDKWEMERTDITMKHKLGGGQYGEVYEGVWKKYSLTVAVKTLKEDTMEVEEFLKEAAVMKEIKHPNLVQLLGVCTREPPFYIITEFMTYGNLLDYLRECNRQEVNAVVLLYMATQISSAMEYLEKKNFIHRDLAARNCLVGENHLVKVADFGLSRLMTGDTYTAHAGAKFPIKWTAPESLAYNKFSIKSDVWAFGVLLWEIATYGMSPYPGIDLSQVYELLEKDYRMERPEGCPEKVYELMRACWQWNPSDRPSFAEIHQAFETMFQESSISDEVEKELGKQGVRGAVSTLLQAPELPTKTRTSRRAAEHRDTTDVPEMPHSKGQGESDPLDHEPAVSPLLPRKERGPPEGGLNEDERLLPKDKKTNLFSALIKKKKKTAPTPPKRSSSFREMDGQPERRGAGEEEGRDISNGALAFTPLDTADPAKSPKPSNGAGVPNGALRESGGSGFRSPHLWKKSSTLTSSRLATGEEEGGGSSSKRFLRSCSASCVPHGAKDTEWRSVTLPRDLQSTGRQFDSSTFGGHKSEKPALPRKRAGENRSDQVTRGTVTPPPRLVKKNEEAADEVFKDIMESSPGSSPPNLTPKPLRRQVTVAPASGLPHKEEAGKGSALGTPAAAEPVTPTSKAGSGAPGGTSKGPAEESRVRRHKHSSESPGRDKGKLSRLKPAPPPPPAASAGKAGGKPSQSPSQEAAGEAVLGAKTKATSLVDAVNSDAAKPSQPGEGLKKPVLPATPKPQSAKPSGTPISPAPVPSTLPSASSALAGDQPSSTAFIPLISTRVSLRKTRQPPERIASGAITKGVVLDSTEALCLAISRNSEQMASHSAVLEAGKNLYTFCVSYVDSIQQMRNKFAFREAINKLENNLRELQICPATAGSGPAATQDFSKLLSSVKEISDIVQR
Kind of assay: Biochemical kinase profile (23 oncogenic kinases), ABL1. The conditions noted are these: 10 μM compound, 10 μM ATP, single-dose duplicate; read-out: % inhibition ABL1 kinase (and rest of tested kinases). As to the method: as §4, §5, §6

Assay [8] relates to A549 non-small cell lung cancer cells. The conditions noted are these: reported data ref 20; cited from earlier work.
Assay [9] concerns HCT116 colon cancer cells. The conditions noted are these: reported data ref 20; cited from earlier work.
For assay [10], the system named is T47D breast cancer cells. The conditions noted are these: reported data ref 20; cited from earlier work.

SMILES strings stand for the structures.

Sequence of DDR1 (Q08345 19-913): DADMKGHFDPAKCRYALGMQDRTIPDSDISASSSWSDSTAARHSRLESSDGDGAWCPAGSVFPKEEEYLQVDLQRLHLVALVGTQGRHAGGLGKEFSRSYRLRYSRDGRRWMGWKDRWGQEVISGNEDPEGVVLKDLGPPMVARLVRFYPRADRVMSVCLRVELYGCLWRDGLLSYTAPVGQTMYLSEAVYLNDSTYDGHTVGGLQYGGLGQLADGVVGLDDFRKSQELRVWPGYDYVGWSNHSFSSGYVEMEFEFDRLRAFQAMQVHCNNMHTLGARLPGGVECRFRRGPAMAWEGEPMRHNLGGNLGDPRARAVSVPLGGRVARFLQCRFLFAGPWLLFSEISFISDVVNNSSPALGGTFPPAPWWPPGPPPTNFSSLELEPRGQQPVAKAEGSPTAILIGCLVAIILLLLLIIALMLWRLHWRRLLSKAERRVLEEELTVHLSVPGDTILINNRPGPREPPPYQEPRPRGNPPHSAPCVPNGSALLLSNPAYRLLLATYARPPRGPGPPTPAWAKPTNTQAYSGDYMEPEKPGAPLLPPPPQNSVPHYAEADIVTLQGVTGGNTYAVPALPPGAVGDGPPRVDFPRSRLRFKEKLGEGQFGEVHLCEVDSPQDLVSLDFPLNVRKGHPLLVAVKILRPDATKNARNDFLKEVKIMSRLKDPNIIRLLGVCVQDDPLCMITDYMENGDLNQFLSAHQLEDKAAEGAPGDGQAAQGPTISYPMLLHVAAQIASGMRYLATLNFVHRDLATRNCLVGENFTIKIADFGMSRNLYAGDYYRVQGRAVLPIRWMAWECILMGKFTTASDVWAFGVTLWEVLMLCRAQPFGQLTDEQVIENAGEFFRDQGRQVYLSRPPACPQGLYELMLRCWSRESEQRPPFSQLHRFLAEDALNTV
T1 sequence (P04629 33-796): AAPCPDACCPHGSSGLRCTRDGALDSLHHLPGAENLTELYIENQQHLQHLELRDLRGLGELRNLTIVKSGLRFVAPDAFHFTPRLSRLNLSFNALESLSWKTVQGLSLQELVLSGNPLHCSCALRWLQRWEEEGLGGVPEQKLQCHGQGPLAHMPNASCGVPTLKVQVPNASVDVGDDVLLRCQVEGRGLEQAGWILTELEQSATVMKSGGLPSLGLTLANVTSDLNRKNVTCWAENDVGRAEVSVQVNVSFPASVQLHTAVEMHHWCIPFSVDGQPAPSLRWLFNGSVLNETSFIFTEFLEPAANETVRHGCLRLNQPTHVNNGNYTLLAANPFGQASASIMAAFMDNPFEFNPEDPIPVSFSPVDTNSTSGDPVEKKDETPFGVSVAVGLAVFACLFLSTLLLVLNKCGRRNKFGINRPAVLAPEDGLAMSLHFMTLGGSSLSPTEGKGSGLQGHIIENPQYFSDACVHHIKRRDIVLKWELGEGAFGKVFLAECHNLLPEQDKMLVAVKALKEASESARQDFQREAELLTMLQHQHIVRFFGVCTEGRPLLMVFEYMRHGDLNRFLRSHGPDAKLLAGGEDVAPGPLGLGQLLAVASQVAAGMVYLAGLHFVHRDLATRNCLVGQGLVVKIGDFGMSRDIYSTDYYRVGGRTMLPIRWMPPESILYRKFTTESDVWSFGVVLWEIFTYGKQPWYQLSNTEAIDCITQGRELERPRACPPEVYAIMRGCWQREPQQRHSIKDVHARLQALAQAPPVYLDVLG
Protocol for DDR2: All compounds in this study were tested against DDR1 and DDR2 at a 10 µM dose at Reaction Biology Corporation (RBC, Malvern, PA, USA) employing the radiometric HotSpot Kinase assay protocol (Table 1).

Take `O=C(Nc1cccc(OC(F)(F)F)c1)Nc1ccc2oc(=O)ccc2c1` [Compound 3q, 1-(2-Oxo-2H-chromen-6-yl)-3-(3-(trifluoromethoxy)phenyl)urea]: the inhibition at 10 µM in assay [1] came out at 45.6%; in the assay with K562 leukemia cells it was 67.1%; in assay [2], 56.6%; in assay [3], 57%; at DDR1 (read-out: % Inhibition at 10 μM (SEM) DDR1), 87.4%; in [4] it was 66.3%. Further, the inhibition at 10 µM in the assay on T47D breast cancer cells [5] was 69.4%; on DDR2 (read-out: % Inhibition at 10 μM (SEM) DDR2) it was 70.1%; in [7], 69.9%; on ABL1 kinase, below 25%. Also, at TrkA kinase, the “%EI TrkA kinase” value was 46.95%. In addition, the IC50 against DDR1 was 0.191 µM; at DDR2 it was 5.08 µM. Also, the “SI: Selectivity index (IC50 DDR2/IC50 DDR1)” value on DDR1 (DDR1 over DDR2) stood at 26.6. The “%EI c-Kit kinase” value at c-Kit kinase came to 75.59%. Besides, the “%GI over all tested cell lines” value in assay [6] is 45.65–69.93%.

On to `CCN1CCN(Cc2ccc(C(=O)Nc3ccc(C)c(Oc4ccc5c(c4)CC(=O)N5)c3)cc2C(F)(F)F)CC1` [DDR1-IN-1], for which the GI50 in assay [8] is above 10 µM; in assay [9], 8.7 µM; in the assay with T47D breast cancer cells [10], above 10 µM. The same compound showed a half-inhibitory concentration (IC50) at DDR2 of 0.0597 µM.

Broadly, the inhibition is the drop in the measured response relative to a control, in per cent. A word on the IC50: it is the concentration that gives 50% inhibition. As usually defined, the GI50 is the concentration giving 50% growth inhibition.
